What all share (format): in vivo
Test [1] deals with Nezara viridula. In words: Nezara viridula spray test (NEZARA). The conditions noted are these: 96 h, NEZAVI, 4 dat, read-out: % efficacy. As for the experimental part: Solvent: 52.5 parts by weight of acetone • 7 parts by weight of dimethylformamide Emulsifier: alkylaryl polyglycol ether To produce an appropriate active ingredient formulation, 1 part by weight of active ingredient is dissolved with the stated parts by weight of solvent and made up with water containing an emulsifier concentration of 1000 ppm until the desired concentration is attained. For production of further test concentrations, the mixture is diluted with emulsifier-containing water. If addition of ammonium salts or/and penetrants is required, these are each added to the preparation solution in a concentration of 1000 ppm. Barley plants (Hordeum vulgare) infested with larvae of the southern green shield bug (Nezara viridula) are sprayed with an active ingredient formulation of the desired concentration. After the desired time, the efficacy in % is determined. 100% means that all bugs have been killed; 0% means that no bugs have been killed.

In test [2] the test system is Nilaparvata lugens. In words: Nilaparvata lugens test (NILALU S). The conditions noted are these: read-out: % efficacy. As to the method: Solvent: 14 parts by weight of dimethylformamide Emulsifier: 2 parts by weight of alkylaryl polyglycol ether To produce an appropriate active ingredient formulation, 1 part by weight of active ingredient is dissolved with the stated parts by weight of solvent and emulsifier and made up with water until the desired concentration is attained. For production of further test concentrations, the mixture is diluted with water. If addition of ammonium salts or/and penetrants (rapeseed oil methyl ester) is required, these are each pipetted into the finished preparation solution in a concentration of 1000 ppm after the dilution. Rice plants (Oryza sativa, var. Balilla) are treated by spraying with the active ingredient formulation in the desired concentration and then populated with L3 larvae of the brown planthopper (Nilaparvata lugens). After the desired time, the kill in % is determined. 100% means that all planthoppers have been killed and 0%, means that no planthoppers have been killed.

The subject of test [3] is Tetranychus urticae. In words: Tetranychus urticae spray test; OP-resistant (TETRUR), contrastive examples. As to conditions: 144 h, 6 dat, read-out: % efficacy. As for the experimental part:
Solvent: 78.0 parts by weight of acetone • • 1.5 parts by weight of dimethylformamide Emulsifier: alkylaryl polyglycol ether To produce an appropriate active ingredient formulation, 1 part by weight of active ingredient is dissolved with the stated parts by weight of solvent and made up with water containing an emulsifier concentration of 1000 ppm until the desired concentration is attained. For production of further test concentrations, the mixture is diluted with emulsifier-containing water. Discs of bean leaves (Phaseolus vulgaris) infested by all stages of the common spider mite (Tetranychus urticae) are sprayed with an active ingredient formulation of the desired concentration. After the desired time, the efficacy in % is determined. 100% means that all spider mites have been killed; 0% means that no spider mites have been killed.

The test system of test [4] is Aphis gossypii. In words: Aphis gossypii spray test (APHIGO). The conditions noted are these: 144 h, 6 dat, read-out: % efficacy. As for the experimental part:
Solvent: 14 parts by weight of dimethylformamide Emulsifier: alkylaryl polyglycol ether To produce an appropriate active ingredient formulation, 1 part by weight of active ingredient is dissolved with the stated parts by weight of solvent and made up with water containing an emulsifier concentration of 1000 ppm until the desired concentration is attained. For production of further test concentrations, the mixture is diluted with emulsifier-containing water. If addition of ammonium salts or/and penetrants is required, these are each added to the preparation solution in a concentration of 1000 ppm. Cotton plants (Gossypium hirsutum) severely infested by the cotton aphid (Aphis gossypii) are sprayed with an active ingredient formulation of the desired concentration. After the desired time, the kill in % is determined. 100% means that all aphids have been killed; 0% means that no aphids have been killed.

The test system of test [5] is Myzus persicae. In words: Myzus persicae drench test (MYZUPE D). The conditions noted are these: soil, 240 h, 10 dat, read-out: % efficacy. As to the method:
Solvent: 7 parts by weight of dimethylformamide Emulsifier: 2 parts by weight of alkylaryl polyglycol ether To produce an appropriate active ingredient formulation, 1 part by weight of active ingredient is mixed with the stated amounts of solvent and emulsifier, and the concentrate is diluted with water to the desired concentration, it being necessary to take into account soil volume into which drenching is effected. It should be ensured that a concentration of 40 ppm of emulsifier in the soil is not exceeded. For production of further test concentrations, the mixture is diluted with water. Savoy cabbage plants (Brassica oleracea) in earth pots, infested by all stages of the green peach aphid (Myzus persicae), are drenched with an active ingredient formulation of the desired concentration. After the desired time, the efficacy in % is determined. 100% means that all aphids have been killed; 0% means that no aphids have been killed.

For test [6], the system named is Nilaparvata lugens. In words: Nilaparvata lugens spray test (NILALU). The conditions noted are these: 96 h, 4 dat, read-out: % efficacy. As for the experimental part:
Solvent: 52.5 parts by weight of acetone • 7 parts by weight of dimethylformamide
Emulsifier: alkylaryl polyglycol ether
To produce an appropriate active ingredient formulation, 1 part by weight of active ingredient is dissolved with the stated parts by weight of solvent and made up with water containing an emulsifier concentration of 1000 ppm until the desired concentration is attained. For production of further test concentrations, the mixture is diluted with emulsifier-containing water. If addition of ammonium salts or/and penetrants is required, these are each added to the preparation solution in a concentration of 1000 ppm.
Rice plants (Oryza sativa) are sprayed with an active ingredient formulation of the desired concentration and then populated with larvae of the rice cicada (Nilaparvata lugens).
After the desired time, the efficacy in % is determined. 100% means that all rice cicadas have been killed; 0% means that no rice cicadas have been killed.

The subject of test [7] is Myzus persicae. In words: Myzus persicae spray test (MYZUPE), contrastive examples. As to conditions: 120 h, 5 dat, read-out: % efficacy. As to the method: Solvent: 78.0 parts by weight of acetone • • 1.5 parts by weight of dimethylformamide Emulsifier: alkylaryl polyglycol ether To produce a suitable active ingredient formulation, 1 part by weight of active ingredient is dissolved with the specified parts by weight of solvent and made up to the desired concentration with water containing an emulsifier concentration of 1000 ppm. To produce further test concentrations, the formulation is diluted with emulsifier-containing water. Discs of chinese cabbage leaves (Brassica pekinensis) infested by all stages of the green peach aphid (Myzus persicae) are sprayed with an active ingredient formulation of the desired concentration. After the desired time, the efficacy in % is determined. 100% means that all aphids have been killed; 0% means that no aphids have been killed.

SMILES strings stand for the structures. Read-outs that look alike come from different tables or passages of the source.

With `CCNC(=O)Nc1ccc(S(=O)(=O)CC)c(-c2nc3cc(C(F)(F)C(F)(F)F)nnc3n2C)n1` [Comparison, reference compound], the Emax at 0.8 g/ha in test [1] is 0%. In addition, the Emax at 0.8 ppm in test [2] (168 h, 7 dat) is 5%; in test [2] (336 h, 14 dat), 20%; in test [5], 0%. In addition, in test [3], the Emax at 100 g/ha was 0%. For the same compound, in test [4], the Emax at 4 ppm was 15%. Further, the Emax at 4 g/ha in test [6] and in test [7] was 0% in each case.
